# Experiment: Distribution coefficient of carboxylic acids, water / 20% TAPO in Fragoltherm, two-phase co-culture
# Format: physicochemical
# Details: water and 20% TAPO in Fragoltherm, pH 6.6, after 67 h cultivation at 37° C.
# Protocol: The bacterium Clostridium kluyveri was cultivated in a co culture with Clostridium autoethanogenum for the biotransformation of ethanol and acetate to medium chain fatty acids. For the inSitu extraction of the produced acids the aqueous phase was overlayed with a mixture of Fragoltherm Q-32-N with trialkylphosphineoxide (TAPO). All cultivation steps were carried out under anaerobic conditions, the preculture in a stainless steel bubble column loop reactor and the main culture in a pressure-resistant glass bottle that can be closed airtight with a butyl rubber stopper.
# The aqueous phase was then overlayed with 20 ml anaerobisized extracting agent (20% trialkylphosphineoxid (TAPO) in Fragoltherm Q-32-N). The bottle with the two-layer phases was then cultivated at 37° C., 150 rpm and with a gas atmosphere of 10% H2 and 90% N2 in an open water bath shaker for 67 h. The gas atmosphere in the bottle was flushed once a day for 10 min with pure N2.
# During cultivation several 5 mL samples from both, the aqueous and the organic phase, were taken to determinate OD600 nm, pH and product formation. The determination of the product concentrations in the aqueous phase was performed by semiquantitative 1H-NMR spectroscopy and high performance liquid chromatography (HPLC) and in the organic phase by semiquantitative 1H-NMR spectroscopy and gas chromatography (GC). […]
row,SMILES,distribution coefficient K(D)
1,CCCCCC(=O)O [hexanoic acid],4.33
2,CCCCCCCC(=O)O [octanoic acid],108

# Reference: US20250230472A1, “EXTRACTION OF ALKANOIC ACIDS” (priority 2018, published 2025)
